What follows are compounds tested on Wnt signaling (assay: TopFlash reporter gene bioassay in SW480 cells). Details: Homo sapiens, SW480, TopFlash reporter gene assay, inhibition of Wnt signaling; read-out: RGA, IC50 (μM) TopF.
Type: cell-based

| Compound | IC50 [µM] |
| --- | --- |
| C=CCN1CC(=O)N2[C@@H](Cc3ccc(O)cc3)C(=O)N(Cc3ccc(F)c4scnc34)C[C@@H]2N1C(=O)NCc1ccc(OC)c(OC)c1 [compound 224] | 4.3 ± 0.7 |
| C=CCN1CC(=O)N2[C@@H](Cc3ccc(O)cc3)C(=O)N(Cc3cccc(NC(N)=O)c3)C[C@@H]2N1C(=O)NCc1ccccc1 [compound 225] | 4.3 ± 0.67 |
| C=CCN1CC(=O)N2[C@@H](Cc3ccc(O)cc3)C(=O)N(Cc3cccc(OC)c3OC3Cc4ccccc4C3)C[C@@H]2N1C(=O)NCc1ccccc1 [compound 226] | 4.33 ± 0.5 |
| C=CCN1CC(=O)N2[C@@H](Cc3ccc(O)cc3)C(=O)N(Cc3ccc4ncoc4c3)C[C@@H]2N1C(=O)NCc1ccccc1 [compound 228] | 4.51 ± 0.72 |
| C=CCN1CC(=O)N2[C@@H](Cc3ccc(OS(N)(=O)=O)cc3)C(=O)N(Cc3cccc(C(N)=O)c3)C[C@@H]2N1C(=O)NCc1ccccc1 [compound 229] | 4.78 ± 0.69 |
| CN1CC(=O)N2[C@@H](Cc3ccc(O)cc3)C(=O)N(Cc3cccc4scnc34)C[C@@H]2N1C(=O)NCc1ccccc1 [compound 232] | 4.97 ± 0.73 |
| C=CCN1CC(=O)N2[C@@H](Cc3ccc(O)cc3)C(=O)N(Cc3cncc(C(=O)OC)c3)C[C@@H]2N1C(=O)NCc1ccccc1 [compound 233] | 4.98 ± 0.69 |
| C=CCN1CC(=O)N2[C@@H](Cc3ccc(O)c(Cl)c3)C(=O)N(Cc3cccc4scnc34)C[C@@H]2N1C(=O)NCc1ccccc1 [compound 234] | 40.2 ± 5.7 |
| C=CCN1CC(=O)N2[C@@H](Cc3ccc(O)c(Br)c3)C(=O)N(Cc3cccc4scnc34)C[C@@H]2N1C(=O)NCc1ccccc1 [compound 235] | 40.7 ± 6.4 |
| C=CCN1CC(=O)N2[C@@H](Cc3ccc(O)cc3)C(=O)N(Cc3ccc(C(C)(C)C)cc3)C[C@@H]2N1C(=O)NCc1ccccc1 [compound 236] | 41.7 ± 4.2 |
| C=CCN1CC(=O)N2[C@@H](Cc3ccc(O)cc3)C(=O)N(Cc3ccc(F)c4scnc34)C[C@@H]2N1C(=O)NCC1CCCCC1 [compound 238] | 49.8 ± 4.8 |
| C=CCN1CC(=O)N2[C@@H](Cc3ccc(O)cc3)C(=O)N(Cc3cccc(C(=O)N4CC=CC4)c3)C[C@@H]2N1C(=O)NCc1ccccc1 [compound 239] | 5.09 ± 1.32 |
| C=CCN1CC(=O)N2[C@@H](Cc3ccc(O)cc3)C(=O)N(Cc3cccc(C(=O)N(C)C)c3)C[C@@H]2N1C(=O)NCc1ccccc1 [compound 240] | 5.41 ± 0.89 |
| C=CCN1CC(=O)N2[C@@H](Cc3ccc(O)cc3)C(=O)N(Cc3cccc(NS(N)(=O)=O)c3)C[C@@H]2N1C(=O)NCc1ccccc1 [compound 243] | 5.81 ± 0.58 |
| C=CCN1CC(=O)N2[C@@H](Cc3ccc(O)cc3)C(=O)N(Cc3cc4c(cc3[N+](=O)[O-])OCO4)C[C@@H]2N1C(=O)NCc1ccccc1 [compound 244] | 5.98 ± 1.03 |
| C=CCN1CC(=O)N2[C@@H](Cc3ccc(O)cc3)C(=O)N(Cc3ccc(OCCC)cc3)C[C@@H]2N1C(=O)NCc1ccccc1 [compound 247] | 6.66 ± 0.88 |
| C=CCN1CC(=O)N2[C@@H](Cc3ccc(O)cc3)C(=O)N(Cc3cccc(-c4ccc(O)cc4)n3)C[C@@H]2N1C(=O)NCc1ccccc1 [compound 248] | 6.71 ± 1.57 |

| Compound | IC50 [µM] |
| --- | --- |
| C=CCN1CC(=O)N2[C@@H](Cc3ccc(O)cc3)C(=O)N(Cc3ccc(OCC)cc3)C[C@@H]2N1C(=O)NCc1ccccc1 [compound 249] | 6.8 ± 1.5 |
| C=CCN1CC(=O)N2[C@@H](Cc3ccc(O)cc3)C(=O)N(Cc3csc4c(NC(C)=O)cccc34)C[C@@H]2N1C(=O)NCc1ccccc1 [compound 250] | 6.98 ± 1.45 |
| C=CCN1CC(=O)N2[C@@H](Cc3ccc(O)cc3)C(=O)N(Cc3cccc(OC)c3Oc3cccc(F)c3)C[C@@H]2N1C(=O)NCc1ccccc1 [compound 252] | 7.05 ± 0.87 |
| C=CCN1CC(=O)N2[C@@H](Cc3ccc(O)cc3)C(=O)N(Cc3c[nH]c4ccc(OC)cc34)C[C@@H]2N1C(=O)NCc1ccccc1 [compound 253] | 7.1 ± 0.99 |
| C=CCN1CC(=O)N2[C@@H](Cc3ccc(O)cc3)C(=O)N(Cc3ccc(N)c([N+](=O)[O-])c3)C[C@@H]2N1C(=O)NCc1ccccc1 [compound 254] | 7.13 ± 1.35 |
| C=CCN1CC(=O)N2[C@@H](Cc3ccc(O)cc3)C(=O)N(Cc3ccc(F)c4scnc34)C[C@@H]2N1C(=O)NCc1ccc(C#N)cc1 [compound 255] | 7.17 ± 1.33 |
| C=CCN1CC(=O)N2[C@@H](Cc3ccc(O)cc3)C(=O)N(Cc3cccc(C(=O)NCCO)c3)C[C@@H]2N1C(=O)NCc1ccccc1 [compound 256] | 7.2 ± 1.06 |
| C=CCN1CC(=O)N2[C@@H](Cc3ccc(O)cc3)C(=O)N(Cc3cccnc3-c3cccc(C#N)c3)C[C@@H]2N1C(=O)NCc1ccccc1 [compound 257] | 7.26 ± 1.3 |
| C=CCN1CC(=O)N2[C@@H](Cc3ccc(O)cc3)C(=O)N(Cc3cccc(C(=O)NC)c3[N+](=O)[O-])C[C@@H]2N1C(=O)NCc1ccccc1 [compound 258] | 7.51 ± 2.1 |
| C=CCN1CC(=O)N2[C@@H](Cc3ccc(O)cc3)C(=O)N(Cc3ccc([N+](=O)[O-])c(O)c3)C[C@@H]2N1C(=O)NCc1ccccc1 [compound 259] | 7.62 ± 1.89 |
| C=CCN1CC(=O)N2[C@@H](Cc3ccc(O)cc3)C(=O)N(Cc3cccc(C(=O)Nc4cc[nH]n4)c3)C[C@@H]2N1C(=O)NCc1ccccc1 [compound 260] | 8.43 ± 2.07 |
| C=CCN1CC(=O)N2[C@@H](Cc3ccc(O)cc3)C(=O)N(Cc3cccc(-c4ccc(S(C)(=O)=O)cc4)n3)C[C@@H]2N1C(=O)NCc1ccccc1 [compound 261] | 8.48 ± 0.9 |
| C=CCN1CC(=O)N2[C@@H](Cc3ccc(O)cc3)C(=O)N(Cc3cccc(OC)c3OC)C[C@@H]2N1C(=O)NCc1ccccn1 [compound 262] | 8.48 ± 1.37 |
| C=CCN1CC(=O)N2[C@@H](Cc3ccc(O)cc3)C(=O)N(CC3=CS(=O)(=O)c4ccccc43)C[C@@H]2N1C(=O)NCc1ccccc1 [compound 263] | 9.09 ± 0.67 |
| C=CCN1CC(=O)N2[C@@H](Cc3ccc(O)cc3)C(=O)N(Cc3ccnc(N)n3)C[C@@H]2N1C(=O)NCc1ccccc1 [compound 264] | 9.11 ± 1.82 |
| C=CCN1CC(=O)N2[C@@H](Cc3ccc(O)cc3)C(=O)N(Cc3cccc(C(=O)NO)c3)C[C@@H]2N1C(=O)NCc1ccccc1 [compound 265] | 9.3 ± 0.53 |
| C=CCN1CC(=O)N2[C@@H](Cc3ccc(O)cc3)C(=O)N(Cc3cccc4c3ncn4CC(N)=O)C[C@@H]2N1C(=O)NCc1ccccc1 [compound 267] | 6.63 ± 1.35 |

Same assay, conditions: Homo sapiens, SW480; read-out: RGA, IC50 (μM) TopF

| Compound | IC50 [µM] |
| --- | --- |
| C=CCN1CC(=O)N2[C@@H](Cc3ccc(O)cc3)C(=O)N(Cc3ccc4cc[nH]c4c3)C[C@@H]2N1C(=O)NCc1ccccc1 [compound 223] | 4.01 ± 0.96 |
| C=CCN1CC(=O)N2[C@@H](Cc3ccc(O)cc3)C(=O)N(Cc3csc4ccc(NS(C)(=O)=O)cc34)C[C@@H]2N1C(=O)NCc1ccccc1 [compound 246] | 6.59 ± 0.86 |
| C=CCN1CC(=O)N2[C@@H](Cc3ccc(OC(N)=O)cc3)C(=O)N(Cc3ccc(F)cc3F)C[C@@H]2N1C(=O)NCc1ccccc1 [compound 251] | 1.14 ± 0.07 |

Same assay, conditions: TopFlash reporter gene assay, inhibition of Wnt signaling; read-out: RGA, IC50 (μM) TopF

| Compound | IC50 [µM] |
| --- | --- |
| C=CCN1CC(=O)N2[C@@H](Cc3ccc(O)cc3)C(=O)N(Cc3ccc(F)c4scnc34)C[C@@H]2N1C(=O)NCCc1ccccc1 [compound 245] | 6.19 ± 0.73 |
| C=CCN1CC(=O)N2[C@@H](Cc3ccc(O)cc3)C(=O)N(Cc3cccc(C(=O)NC4CCCC4)c3)C[C@@H]2N1C(=O)NCc1ccccc1 [compound 266] | 9.43 ± 1.65 |

The compounds below were run against T1, cDNA-expressed human hepatic CYP3A4 (Homo sapiens, UniProt P08684) (assay: P450 CYP3A4 inhibitory activity screening (BFC substrate, fluorescence)). Details: P450 CYP3A4 inhibitory activity screening, fluorescent assay; read-out: CYP3A4 inhibition, IC50 (μM) fluorescent assay.
T1 construct: purchased BD Gentest 456202
T1 sequence (P08684 whole entry): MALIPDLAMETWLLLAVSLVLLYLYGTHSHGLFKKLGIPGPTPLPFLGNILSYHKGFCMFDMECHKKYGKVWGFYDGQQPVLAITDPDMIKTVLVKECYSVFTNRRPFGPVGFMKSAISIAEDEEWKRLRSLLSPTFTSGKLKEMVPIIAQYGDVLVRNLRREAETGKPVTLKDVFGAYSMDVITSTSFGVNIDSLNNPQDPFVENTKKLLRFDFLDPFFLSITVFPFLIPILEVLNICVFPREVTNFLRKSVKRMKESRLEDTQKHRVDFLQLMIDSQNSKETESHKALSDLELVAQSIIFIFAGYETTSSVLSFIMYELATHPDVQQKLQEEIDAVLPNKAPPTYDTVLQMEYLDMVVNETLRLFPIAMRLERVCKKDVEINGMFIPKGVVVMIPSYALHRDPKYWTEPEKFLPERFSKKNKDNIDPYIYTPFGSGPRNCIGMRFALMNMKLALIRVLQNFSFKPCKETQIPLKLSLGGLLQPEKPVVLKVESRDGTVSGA
Type: biochemical
Description: P450 CYP3A4 Inhibitory Activity Screening
Assay was conducted in a 200 μL volume in 96-well microtiter plates using cDNA-expressed human hepatic CYP3A4 (supersome, BD Gentest™ #456202). 7-Benzyloxy-4-trifluoromethyl-coumarin (BFC) was used as a substrate for CYP3A4. Test articles and substrate BFC were dissolved in 100% acetonitrile. The final volume of acetonitrile in the incubation mixture was less than 1% (volume/volume). Potassium phosphate buffer (pH 7.4, final concentration 0.1 M), MgCl2 (final concentration 8.3 mM), EDTA (final concentration 1.67 mM), a test article stock solution, a CYP3A4 supersome and NADPH (final concentration 0.25 mM) were added to each well. The reaction was initiated by the addition of substrate (BFC, final concentration 30 µM) after a 10 min pre-incubation at 37° C. After 10 min incubation at 37° C., the reaction was terminated by the addition of 75 μL of acetonitrile:0.5 M Tris-base=4:1 (volume/volume). Thereafter, Fluorescent signal was measured using a fluorometer. BFC metabolite, 7-hydroxy-4-trifluoromethyl-coumarin, was measured using an excitation wavelength of 409 nm and an emission wavelength of 530 nm.

| Compound | IC50 [µM] |
| --- | --- |
| C=CCN1CC(=O)N2[C@@H](Cc3ccc(O)cc3)C(=O)N(Cc3cccc(C(=O)N4CCCC4)c3)C[C@@H]2N1C(=O)NCc1ccccc1 [compound 1] | 5 |
| C=CCN1CC(=O)N2[C@@H](Cc3ccc(O)cc3)C(=O)N(Cc3cccc(N(C)C=O)c3)C[C@@H]2N1C(=O)NCc1ccccc1 [compound 2] | 5.23 |
| C=CCN1CC(=O)N2[C@@H](Cc3ccc(O)cc3)C(=O)N(Cc3cccnc3Br)C[C@@H]2N1C(=O)NCc1ccccc1 [compound 3] | 5.33 |
| C=CCN1CC(=O)N2[C@@H](Cc3ccc(O)cc3)C(=O)N(Cc3cccc4c3ncn4CC#N)C[C@@H]2N1C(=O)NCc1ccccc1 [compound 4] | 5.4 |
| C=CCN1CC(=O)N2[C@@H](Cc3ccc(O)cc3)C(=O)N(Cc3cccc(-c4ccc(S(C)(=O)=O)cc4)n3)C[C@@H]2N1C(=O)NCc1ccccc1 [compound 6] | 6.78 |
| C=CCN1CC(=O)N2[C@@H](Cc3ccc(O)cc3)C(=O)N(Cc3cccnc3N3CCC(N4CCCC4)CC3)C[C@@H]2N1C(=O)NCc1ccccc1 [compound 7] | 6.84 |
| C=CCN1CC(=O)N2[C@@H](Cc3ccc(O)cc3)C(=O)N(Cc3cccc4c(=O)ccoc34)C[C@@H]2N1C(=O)NCc1ccccc1 [compound 9] | 6.95 |

Same assay, conditions: human CYP3A4 supersome, substrate BFC, 10 min incubation at 37° C.; read-out: IC50 values of Compounds against CYP3A4 activity

| Compound | IC50 [µM] |
| --- | --- |
| C=CCN1CC(=O)N2[C@@H](Cc3ccc(O)cc3)C(=O)N(Cc3cccc(NC(=O)OC)c3)C[C@@H]2N1C(=O)NCc1ccccc1 (single isomer, unassigned) [C] | 24.2 |
| C=CCN1CC(=O)N2[C@@H](Cc3ccc(O)cc3)C(=O)N(Cc3cccc(C(=O)NC)n3)C[C@@H]2N1C(=O)NCc1ccccc1 [A] | 13.1 |
| C=CCN1CC(=O)N2[C@@H](Cc3ccc(O)cc3)C(=O)N(Cc3cccc(N(C)C(=O)OC)c3)C[C@@H]2N1C(=O)NCc1ccccc1 [D] | 10.2 |
| C=CCN1CC(=O)N2[C@@H](Cc3ccc(O)cc3)C(=O)N(Cc3cccc4c3nc(C(F)(F)F)n4C)C[C@@H]2N1C(=O)NCc1ccccc1 [E] | > 10 |

From patent US8080657B2, “Compounds of reverse turn mimetics and the use thereof” (Choongwae Pharma Corporation, priority 2008, dated 2011)
